From patent US10179355B2, “Bioremediation enhancing agents and methods of use” (JRW BIOREMEDIATION, LLC, priority 2007, dated 2019)

Test system: dechlorinating bacteria known to convert PCE to ethene
Test: Set C: Nutrient Comparisons, PCE dechlorination microcosms (kinetics, Relative Rate)
Assay type: cell-based, Dehalococcoides and Dehalobacter spp.
Source text: Certain contaminated materials (or sites) may contain indigenous microbial communities that are sufficient for complete bioremediation of contaminants. For such sites, there is no need to add microbes unless the indigenous microbes are genetically deficient in achieving the desired clean-up goals. For those sites that are microbiologically limited, microorganisms may be added to the contaminated materials (or sites). In one embodiment, the inoculum may be a mixed culture of halo-respiring bacteria that have been enriched to reach an optimal cell density. These mixed cultures of halo-respiring bacteria may be typically obtained from sediment samples from rivers, streams or any waterways. More specifically, the inoculum used in the Examples was originated from a Sangamon River sediment sample (Lodge Park, Piatt County, Ill.) See, e.g., Brennan, R. A., Sanford, R. A. and Werth, C. J. (2006). “Biodegradation of Tetrachloroethene by Chitin Fermentation Products in a Continuous Flow Column System.” Journal of Environ. Engr., June 665-673. This culture had grown for several years on PCE, anaerobic basal salts medium, Wolfe's vitamin solution and various electron donors including lactate (1-2 millimolar (mM)), formate (4 mM) and chitin using the Volatile Interface Transfer Apparatus (VITA) reactor system at the University of Illinois. Brennan, R. A., and Sanford, R. A. (2002). “Continuous steady-state method using Tenax for delivering tetrachloroethene to chlororespiring bacteria.” Appl. Environ. Microbiol., 68(3), 1464-1467. […] Using 16S rRNA gene-specific primers, both Dehalococcoides and Dehalobacter spp. were detected. Quantitative real-time PCR has been used to determine that approximately 1.65×10^7 Dehalococcoides gene copies were present per ml of culture.
For purpose of this disclosure, each bottle may be started with a certain amount of PCE. At subsequent times each bottle may be sampled for the degradation daughter products of PCE, namely trichloroethene (TCE), cis-dichloroethene (DCE), vinyl chloride (VC) and ethene, etc. Trans-DCE and 1,1-DCE are also daughter products of PCE, but they may not be detectable under the conditions disclosed here.
The rate of degradation may be determined by calculating the number of pmoles of chloride ions removed from PCE and subsequently from the amounts of the daughter products generated. The calculation may be performed as follows: Chloride (μmoles)=[…]−4×PCE (μmoles)−3×TCE (pmoles)−2×DCE (μmoles)−VC (μmoles)
Next, the dechlorination rate may be determined for each bottle at each time by dividing the Chloride generated by the time (days). The data may be then normalized to the lactate control by taking the ratio of Chloride Rate (pmoles/day) and the Lactate Control Chloride Rate (pmoles/day). This ratio is called Relative Rate and is dimensionless.
As shown in the Examples, a paired t-test has been conducted to calculate the probability that the Relative Rate of one group (i.e. with Nutrient) is greater than the other group (i.e. without Nutrient). The null hypothesis is that the underlying means of the two paired groups are equal. The Probability that one group has higher Relative Rates than the other group is shown in various tables in the Examples.
The following components were used in the system for bioremediating contaminated ground water microcosms in Examples 2-8: • 160 milliliter (ml) stoppered serum bottles • 100 ml of anaerobic culture medium, groundwater containing an excess of bioavailable phosphorus and nitrogen at 0.5 mM Phosphate and 1 mM ammonium degassed with a nitrogen sparge • Nominally 1 gram of limestone • 19.54 micromoles (pmoles) Perchloroethene (PCE) • An excess of various electron donors were utilized • 3 ml of inoculum containing dechlorinating bacteria known to convert PCE to ethene. […]

## CC(O)C(=O)[O-].[Na+] (centres unmarked) [Lactate Control, sodium lactate]
  Average Relative Rate: 1.00
0 days
  Cl^− Rate ± s.d.: 0.00 ± 0.00 µmol
  Cl^− ± s.d.: 0.00 ± 0.00 µmol
  DCE ± s.d.: 0.00 ± 0.00 µmol
  Ethene ± s.d.: 0.00 ± 0.00 µmol
  PCE ± s.d.: 19.54 ± 0.00 µmol
  TCE ± s.d.: 0.00 ± 0.00 µmol
  VC ± s.d.: 0.00 ± 0.00 µmol
21 days
  Cl^− Rate ± s.d.: 2.43 ± 0.13 µmol
  Cl^− ± s.d.: 51.01 ± 2.69 µmol
  DCE ± s.d.: 5.05 ± 0.62 µmol
  Ethene ± s.d.: 0.09 ± 0.02 µmol
  PCE ± s.d.: 0.66 ± 0.52 µmol
  TCE ± s.d.: 1.20 ± 1.01 µmol
  VC ± s.d.: 10.83 ± 1.56 µmol
35 days
  Cl^− Rate ± s.d.: 1.36 ± 0.03 µmol
  Cl^− ± s.d.: 47.71 ± 1.16 µmol
  DCE ± s.d.: 2.02 ± 1.88 µmol
  Ethene ± s.d.: 0.54 ± 0.29 µmol
  PCE ± s.d.: 0.00 ± 0.00 µmol
  TCE ± s.d.: 0.00 ± 0.00 µmol
  VC ± s.d.: 26.41 ± 2.65 µmol
49 days
  Cl^− Rate ± s.d.: 1.03 ± 0.01 µmol
  Cl^− ± s.d.: 50.42 ± 0.27 µmol
  DCE ± s.d.: 0.00 ± 0.00 µmol
  Ethene ± s.d.: 3.79 ± 1.31 µmol
  PCE ± s.d.: 0.00 ± 0.00 µmol
  TCE ± s.d.: 0.00 ± 0.00 µmol
  VC ± s.d.: 27.74 ± 0.27 µmol
Bottle 1, 21 days
  Relative Rate: 1.06
Bottle 1, 35 days
  Relative Rate: 1.02
Bottle 1, 49 days
  Relative Rate: 1.00
Bottle 2, 21 days
  Relative Rate: 0.99
Bottle 2, 35 days
  Relative Rate: 0.97
Bottle 2, 49 days
  Relative Rate: 0.99
Bottle 3, 21 days
  Relative Rate: 0.95
Bottle 3, 35 days
  Relative Rate: 1.00
Bottle 3, 49 days
  Relative Rate: 1.01
